According to ChEMBL document CHEMBL5291721, “A preclinical secondary pharmacology resource illuminates target-adverse drug reaction associations of marketed drugs” (Nat Commun, 2023):

Assays:
[1] = molecular target: T1, Alpha-1A adrenergic receptor (Homo sapiens, UniProt P35348); format: functional, cell-based
T1 sequence (P35348 whole entry): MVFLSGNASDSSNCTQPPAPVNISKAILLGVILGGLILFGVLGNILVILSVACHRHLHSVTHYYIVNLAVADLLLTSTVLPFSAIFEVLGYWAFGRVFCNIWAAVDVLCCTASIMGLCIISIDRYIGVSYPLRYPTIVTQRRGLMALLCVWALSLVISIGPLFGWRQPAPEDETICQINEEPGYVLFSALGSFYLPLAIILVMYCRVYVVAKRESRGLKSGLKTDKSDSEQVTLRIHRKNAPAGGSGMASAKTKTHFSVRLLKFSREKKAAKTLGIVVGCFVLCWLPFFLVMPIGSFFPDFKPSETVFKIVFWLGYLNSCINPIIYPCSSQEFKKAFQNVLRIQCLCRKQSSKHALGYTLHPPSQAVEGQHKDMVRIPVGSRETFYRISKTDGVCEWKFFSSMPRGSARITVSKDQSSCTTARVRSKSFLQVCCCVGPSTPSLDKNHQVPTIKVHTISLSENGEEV

[2] = molecular target: T2, Alpha-2B adrenergic receptor (Homo sapiens, UniProt P18089)
T2 sequence (P18089 whole entry): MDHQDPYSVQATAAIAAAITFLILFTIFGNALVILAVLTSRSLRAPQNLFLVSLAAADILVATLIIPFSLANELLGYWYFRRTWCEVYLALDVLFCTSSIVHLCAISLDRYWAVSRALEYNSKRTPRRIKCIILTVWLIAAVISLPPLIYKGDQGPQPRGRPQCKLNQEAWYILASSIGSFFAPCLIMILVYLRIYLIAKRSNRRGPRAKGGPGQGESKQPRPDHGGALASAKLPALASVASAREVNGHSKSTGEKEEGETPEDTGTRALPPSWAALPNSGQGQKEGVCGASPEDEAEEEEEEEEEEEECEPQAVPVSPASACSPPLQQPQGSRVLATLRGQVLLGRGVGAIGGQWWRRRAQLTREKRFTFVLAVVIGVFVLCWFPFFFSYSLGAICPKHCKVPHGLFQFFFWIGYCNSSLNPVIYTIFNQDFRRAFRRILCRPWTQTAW

[3] = molecular target: T3, Alpha-2C adrenergic receptor (Homo sapiens, UniProt P18825); format: functional
T3 sequence (P18825 whole entry): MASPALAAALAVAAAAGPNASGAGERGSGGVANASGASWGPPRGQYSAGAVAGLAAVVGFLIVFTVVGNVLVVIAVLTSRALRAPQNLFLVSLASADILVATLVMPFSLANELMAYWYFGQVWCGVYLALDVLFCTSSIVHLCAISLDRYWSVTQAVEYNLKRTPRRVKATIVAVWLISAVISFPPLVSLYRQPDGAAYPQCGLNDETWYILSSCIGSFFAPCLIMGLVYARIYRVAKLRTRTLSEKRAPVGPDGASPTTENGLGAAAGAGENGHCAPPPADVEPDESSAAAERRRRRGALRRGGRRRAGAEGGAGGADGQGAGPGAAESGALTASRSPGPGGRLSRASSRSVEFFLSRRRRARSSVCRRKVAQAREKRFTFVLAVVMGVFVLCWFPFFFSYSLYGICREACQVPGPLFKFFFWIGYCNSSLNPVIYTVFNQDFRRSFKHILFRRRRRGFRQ

B2 bradykinin receptor = molecular target: T4, B2 bradykinin receptor (Homo sapiens, UniProt P30411)
T4 sequence (P30411 whole entry): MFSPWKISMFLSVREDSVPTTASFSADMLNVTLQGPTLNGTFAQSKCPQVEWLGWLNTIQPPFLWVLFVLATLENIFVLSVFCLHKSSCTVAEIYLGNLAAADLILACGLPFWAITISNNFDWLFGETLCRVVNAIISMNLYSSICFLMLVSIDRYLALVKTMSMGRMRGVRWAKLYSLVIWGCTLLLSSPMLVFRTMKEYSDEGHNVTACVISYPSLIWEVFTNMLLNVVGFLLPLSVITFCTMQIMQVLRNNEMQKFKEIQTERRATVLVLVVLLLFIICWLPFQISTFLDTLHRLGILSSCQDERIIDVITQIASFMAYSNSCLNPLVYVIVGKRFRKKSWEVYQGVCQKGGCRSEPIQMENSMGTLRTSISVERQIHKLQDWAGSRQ

[4] = molecular target: T5, Muscarinic acetylcholine receptor M1 (Homo sapiens, UniProt P11229); format: functional
T5 sequence (P11229 whole entry): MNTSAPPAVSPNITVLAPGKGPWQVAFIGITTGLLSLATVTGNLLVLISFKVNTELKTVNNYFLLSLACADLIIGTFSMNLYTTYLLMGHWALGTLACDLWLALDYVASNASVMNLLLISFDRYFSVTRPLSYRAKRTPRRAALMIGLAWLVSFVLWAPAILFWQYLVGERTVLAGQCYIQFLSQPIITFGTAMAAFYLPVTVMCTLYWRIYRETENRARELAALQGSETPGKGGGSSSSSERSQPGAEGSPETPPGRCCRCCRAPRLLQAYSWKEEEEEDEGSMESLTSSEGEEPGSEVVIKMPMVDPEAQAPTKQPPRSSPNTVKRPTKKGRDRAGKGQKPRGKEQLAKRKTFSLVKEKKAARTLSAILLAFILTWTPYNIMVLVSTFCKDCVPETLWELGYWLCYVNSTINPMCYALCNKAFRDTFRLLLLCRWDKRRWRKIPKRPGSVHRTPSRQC

D(1A) dopamine receptor = D(1A) dopamine receptor (Homo sapiens, UniProt P21728); format: functional, cell-based
[5] = molecular target: Gamma-aminobutyric acid receptor subunit alpha-1 (Rattus norvegicus, UniProt P62813)
Histamine H2 receptor = Histamine H2 receptor (Homo sapiens, UniProt P25021); format: functional, cell-based
[6] = molecular target: T6, Equilibrative nucleoside transporter 1 (Homo sapiens, UniProt Q99808)
T6 sequence (Q99808 whole entry): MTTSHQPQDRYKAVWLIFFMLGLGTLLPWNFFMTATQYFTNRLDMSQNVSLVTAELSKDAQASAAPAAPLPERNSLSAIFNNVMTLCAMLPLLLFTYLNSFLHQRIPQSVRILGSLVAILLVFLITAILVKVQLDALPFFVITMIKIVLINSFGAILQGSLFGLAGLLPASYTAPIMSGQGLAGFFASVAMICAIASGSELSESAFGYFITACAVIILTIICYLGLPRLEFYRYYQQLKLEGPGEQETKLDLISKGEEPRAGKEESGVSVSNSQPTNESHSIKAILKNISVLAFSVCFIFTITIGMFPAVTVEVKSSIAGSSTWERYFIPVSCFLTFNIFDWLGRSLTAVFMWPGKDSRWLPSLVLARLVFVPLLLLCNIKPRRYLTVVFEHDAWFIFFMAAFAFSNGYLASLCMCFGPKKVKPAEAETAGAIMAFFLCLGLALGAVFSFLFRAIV

Histamine H3 receptor = Histamine H3 receptor (Homo sapiens, UniProt Q9Y5N1)
Note: assay procedure not described here.

D(1A) dopamine receptor, sequence (P21728 whole entry): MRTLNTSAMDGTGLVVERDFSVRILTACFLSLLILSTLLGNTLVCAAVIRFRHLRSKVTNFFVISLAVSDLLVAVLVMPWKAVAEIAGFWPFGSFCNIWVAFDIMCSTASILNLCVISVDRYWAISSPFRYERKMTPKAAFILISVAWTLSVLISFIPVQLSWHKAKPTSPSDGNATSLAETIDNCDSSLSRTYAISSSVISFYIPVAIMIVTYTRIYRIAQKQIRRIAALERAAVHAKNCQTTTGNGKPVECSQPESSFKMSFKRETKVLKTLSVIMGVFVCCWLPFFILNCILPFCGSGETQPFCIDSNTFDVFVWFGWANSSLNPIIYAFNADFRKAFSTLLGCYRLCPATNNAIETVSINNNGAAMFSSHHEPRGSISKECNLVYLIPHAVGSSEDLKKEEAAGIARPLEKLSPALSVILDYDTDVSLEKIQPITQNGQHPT
Histamine H2 receptor, sequence (P25021 whole entry): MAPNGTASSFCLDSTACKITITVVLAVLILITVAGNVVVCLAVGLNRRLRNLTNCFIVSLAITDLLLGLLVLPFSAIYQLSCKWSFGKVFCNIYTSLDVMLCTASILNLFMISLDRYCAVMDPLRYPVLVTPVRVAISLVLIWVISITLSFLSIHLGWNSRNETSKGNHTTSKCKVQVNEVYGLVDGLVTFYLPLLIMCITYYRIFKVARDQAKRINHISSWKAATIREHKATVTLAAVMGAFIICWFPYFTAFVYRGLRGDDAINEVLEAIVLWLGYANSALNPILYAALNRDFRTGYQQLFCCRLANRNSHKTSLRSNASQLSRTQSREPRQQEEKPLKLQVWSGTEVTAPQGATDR
Histamine H3 receptor, sequence (Q9Y5N1 whole entry): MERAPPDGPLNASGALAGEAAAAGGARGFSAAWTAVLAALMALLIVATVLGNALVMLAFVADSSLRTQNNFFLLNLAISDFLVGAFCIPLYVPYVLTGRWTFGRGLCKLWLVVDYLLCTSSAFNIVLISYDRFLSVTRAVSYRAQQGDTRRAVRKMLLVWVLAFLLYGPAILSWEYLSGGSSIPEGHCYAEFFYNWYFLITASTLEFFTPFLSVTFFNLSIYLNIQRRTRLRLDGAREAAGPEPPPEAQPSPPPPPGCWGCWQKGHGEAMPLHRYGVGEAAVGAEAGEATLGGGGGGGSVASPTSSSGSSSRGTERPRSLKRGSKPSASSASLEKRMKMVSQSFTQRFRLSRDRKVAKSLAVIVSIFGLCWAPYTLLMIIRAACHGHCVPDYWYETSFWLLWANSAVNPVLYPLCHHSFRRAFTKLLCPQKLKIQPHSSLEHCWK
Gamma-aminobutyric acid receptor subunit alpha-1, sequence (P62813 whole entry): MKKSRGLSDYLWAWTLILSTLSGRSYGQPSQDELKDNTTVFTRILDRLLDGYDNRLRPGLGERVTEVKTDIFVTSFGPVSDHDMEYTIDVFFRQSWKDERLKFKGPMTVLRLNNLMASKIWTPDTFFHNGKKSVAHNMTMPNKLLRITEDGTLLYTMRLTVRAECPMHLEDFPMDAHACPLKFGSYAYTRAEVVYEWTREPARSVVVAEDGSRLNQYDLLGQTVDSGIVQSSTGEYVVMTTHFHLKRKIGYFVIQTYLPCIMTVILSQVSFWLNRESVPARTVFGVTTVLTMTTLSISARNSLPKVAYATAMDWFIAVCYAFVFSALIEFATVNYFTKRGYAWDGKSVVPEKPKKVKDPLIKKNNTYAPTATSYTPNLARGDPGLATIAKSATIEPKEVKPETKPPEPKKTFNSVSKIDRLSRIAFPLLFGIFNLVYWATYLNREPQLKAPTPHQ

SMILES	AC50 [1] [µM]	AC50 [2] [µM]	AC50 [3] [µM]	AC50 (B2 bradykinin receptor) [µM]	AC50 [4] [µM]	AC50 (D(1A) dopamine receptor) [µM]	AC50 [5] [µM]	AC50 (Histamine H2 receptor) [µM]	AC50 [6] [µM]	AC50 (Histamine H3 receptor) [µM]
CC(=O)SC[C@@H](C)C(=O)N1CCC[C@H]1C(=O)N[C@@H](Cc1ccccc1)C(=O)O	> 30	> 30	> 30	> 30	> 30	> 30	> 30	> 30	> 30	> 30
CC1=C(C)C(=O)C(C(CCCCCC(=O)O)c2ccccc2)=C(C)C1=O (stereo not given) [SERATRODAST]	> 30	> 30	> 30	> 30	> 30	> 30	> 30	> 30	> 30	> 30
C=C1/C(=C\C=C2/CCC[C@]3(C)[C@@H]([C@H](C)/C=C/[C@@H](O)C4CC4)CC[C@@H]23)C[C@@H](O)C[C@@H]1O [CALCIPOTRIENE]	> 30	> 30	> 30	> 30	> 30	> 30	> 30	> 30	> 30	> 30
Cc1ncc2n1-c1ccc(Cl)cc1C(c1ccccc1F)=NC2 [MIDAZOLAM]	> 30	> 10	> 10	> 30	> 10	> 30	> 10	> 30	> 30	> 10
CCN(CC)C(=O)Nc1ccc(OCC(O)CNC(C)(C)C)c(C(C)=O)c1 (stereo not given) [CELIPROLOL]	> 30	> 30	> 30	> 30	> 30	> 30	> 30	> 30	> 30	> 30
O=C(O)c1ccccc1Nc1cc(Cl)ccc1C(=O)O [LOBENZARIT]	> 30	> 30	> 30	> 30	> 30	> 30	> 30	> 30	> 30	> 30
CCCCCCCCCCCCCCCCCCCCCC(=O)Nc1ccn([C@@H]2O[C@H](CO)[C@@H](O)[C@@H]2O)c(=O)n1 [ENOCITABINE]	> 30	> 30	> 30	> 30	> 30	> 30	> 30	> 30	> 30	> 30
CC(=O)OCC(=O)[C@@]1(O)[C@H](C)C[C@H]2[C@@H]3CCC4=CC(=O)C=C[C@]4(C)[C@@]3(F)[C@@H](O)C[C@@]21C [DEXAMETHASONE ACETATE]	> 30	> 10	> 10	> 30	> 10	> 10	> 10	> 10	> 30	> 10
COc1ccc(-c2noc(CC(=O)O)c2-c2ccc(OC)cc2)cc1 [MOFEZOLAC]	> 30	> 30	> 30	> 30	> 30	> 30	> 30	> 30	> 30	> 30
CCCCCC(=O)O[C@]1(C(C)=O)CC[C@H]2[C@@H]3CCC4=CC(=O)CC[C@]4(C)[C@H]3CC[C@@]21C [HYDROXYPROGESTERONE CAPROATE]	> 30	> 30	> 30	> 9.99	> 30	> 30	> 30	> 30	> 30	> 30
C[N@+]1(CCF)[C@@H]2CC[C@H]1C[C@@H](OC(=O)C(O)(c1ccccc1)c1ccccc1)C2	> 30	> 30	> 30	> 30	0.0066	> 30	> 30	> 30	> 30	> 30
CC(=O)O[C@H](CC(=O)[O-])C[N+](C)(C)C [ACETYLCARNITINE]	> 30	> 30	> 30	> 30	> 30	> 30	> 30	> 30	> 30	> 30
CCOC(=O)O[C@]1(C(=O)OCCl)CC[C@H]2[C@@H]3CCC4=CC(=O)C=C[C@]4(C)[C@H]3[C@@H](O)C[C@@]21C [LOTEPREDNOL ETABONATE]	> 30	> 30	> 30	> 30	> 30	> 30	> 30	> 30	> 30	> 30
CCN1CCCC1CNC(=O)c1cc(S(=O)(=O)CC)c(N)cc1OC (stereo not given) [AMISULPRIDE]	> 30	1.5	0.71	> 30	> 30	> 30	> 30	> 30	> 30	12
CCN(CC)CCN1C(=O)CN=C(c2ccccc2F)c2cc(Cl)ccc21 [FLURAZEPAM]	> 30	> 10	> 10	> 30	> 10	> 30	> 10	> 30	> 30	> 10
